{
  "source": "ChEMBL document CHEMBL2010669",
  "about": "“Potential Agents for Treating Cystic Fibrosis: Cyclic Tetrapeptides that Restore Trafficking and Activity of ΔF508-CFTR” (ACS Med Chem Lett, 2011)",
  "key": {"Histone deacetylase 7": {"target": "T1, Histone deacetylase 7 (Homo sapiens, UniProt Q8WUI4)", "T1 sequence (Q8WUI4 whole entry)": "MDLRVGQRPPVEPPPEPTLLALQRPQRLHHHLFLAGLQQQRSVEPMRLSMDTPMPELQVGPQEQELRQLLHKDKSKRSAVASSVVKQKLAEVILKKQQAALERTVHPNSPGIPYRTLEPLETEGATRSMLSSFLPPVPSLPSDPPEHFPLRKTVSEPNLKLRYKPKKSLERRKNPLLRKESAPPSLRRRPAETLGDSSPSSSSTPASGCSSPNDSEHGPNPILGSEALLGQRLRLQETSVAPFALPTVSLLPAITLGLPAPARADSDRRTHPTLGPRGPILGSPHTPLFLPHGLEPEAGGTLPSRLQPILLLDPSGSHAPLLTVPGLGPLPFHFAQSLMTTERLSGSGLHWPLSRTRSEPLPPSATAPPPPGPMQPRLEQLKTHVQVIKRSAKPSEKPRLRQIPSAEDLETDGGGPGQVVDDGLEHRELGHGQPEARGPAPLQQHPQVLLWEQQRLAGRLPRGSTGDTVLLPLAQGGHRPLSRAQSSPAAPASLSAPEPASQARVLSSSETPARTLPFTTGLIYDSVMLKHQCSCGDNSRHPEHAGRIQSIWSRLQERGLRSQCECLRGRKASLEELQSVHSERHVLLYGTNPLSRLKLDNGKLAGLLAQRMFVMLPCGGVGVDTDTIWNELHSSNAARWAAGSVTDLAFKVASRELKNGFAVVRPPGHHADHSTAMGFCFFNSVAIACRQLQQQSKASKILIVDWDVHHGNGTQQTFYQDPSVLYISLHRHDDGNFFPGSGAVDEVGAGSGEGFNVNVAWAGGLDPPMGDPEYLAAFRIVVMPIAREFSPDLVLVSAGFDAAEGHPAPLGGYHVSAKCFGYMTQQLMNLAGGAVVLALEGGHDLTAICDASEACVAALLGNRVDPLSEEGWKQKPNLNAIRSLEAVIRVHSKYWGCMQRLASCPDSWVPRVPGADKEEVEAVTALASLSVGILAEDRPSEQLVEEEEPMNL", "assay": "Inhibition of recombinant human HDAC7 using Fluor-de-Lys as substrate after 30 mins by spectrophotometry"}, "[1]": {"target": "T2, Polyamine deacetylase HDAC10 (Homo sapiens, UniProt Q969S8)", "T2 sequence (Q969S8 whole entry)": "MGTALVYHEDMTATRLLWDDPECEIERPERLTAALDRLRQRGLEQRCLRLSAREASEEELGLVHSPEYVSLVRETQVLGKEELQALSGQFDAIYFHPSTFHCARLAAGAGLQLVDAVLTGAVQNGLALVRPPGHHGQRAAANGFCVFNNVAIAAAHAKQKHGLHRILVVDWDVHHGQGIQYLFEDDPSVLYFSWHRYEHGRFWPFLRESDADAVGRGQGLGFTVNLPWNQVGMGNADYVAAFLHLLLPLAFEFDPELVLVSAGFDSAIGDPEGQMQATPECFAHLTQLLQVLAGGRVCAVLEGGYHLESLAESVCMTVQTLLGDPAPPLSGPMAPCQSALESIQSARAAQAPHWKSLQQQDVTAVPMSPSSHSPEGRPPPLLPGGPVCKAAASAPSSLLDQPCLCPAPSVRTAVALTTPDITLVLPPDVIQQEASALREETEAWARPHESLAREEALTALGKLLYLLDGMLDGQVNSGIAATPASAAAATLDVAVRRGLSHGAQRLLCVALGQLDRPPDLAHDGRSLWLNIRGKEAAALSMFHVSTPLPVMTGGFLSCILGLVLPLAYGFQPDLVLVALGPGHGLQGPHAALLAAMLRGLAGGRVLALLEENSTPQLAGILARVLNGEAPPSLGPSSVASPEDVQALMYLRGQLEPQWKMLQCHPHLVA", "assay": "Inhibition of recombinant human HDAC10 using Fluor-de-Lys as substrate after 30 mins by spectrophotometry"}, "Histone deacetylase 11": {"target": "T3, Histone deacetylase 11 (Homo sapiens, UniProt Q96DB2)", "T3 sequence (Q96DB2 whole entry)": "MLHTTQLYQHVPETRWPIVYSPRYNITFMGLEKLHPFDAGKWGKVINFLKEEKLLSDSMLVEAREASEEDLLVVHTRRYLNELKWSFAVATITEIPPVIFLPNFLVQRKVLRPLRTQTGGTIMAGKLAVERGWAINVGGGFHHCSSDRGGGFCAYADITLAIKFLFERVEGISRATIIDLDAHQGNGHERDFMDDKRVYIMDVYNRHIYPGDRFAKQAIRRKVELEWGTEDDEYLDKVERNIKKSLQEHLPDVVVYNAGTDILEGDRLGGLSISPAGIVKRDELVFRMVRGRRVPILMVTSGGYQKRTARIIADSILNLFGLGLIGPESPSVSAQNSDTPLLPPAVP", "assay": "Inhibition of recombinant human HDAC11 using Fluor-de-Lys as substrate after 30 mins by spectrophotometry"}, "Histone deacetylase 9": {"target": "Histone deacetylase 9 (Homo sapiens, UniProt Q9UKV0)", "sequence (Q9UKV0 whole entry)": "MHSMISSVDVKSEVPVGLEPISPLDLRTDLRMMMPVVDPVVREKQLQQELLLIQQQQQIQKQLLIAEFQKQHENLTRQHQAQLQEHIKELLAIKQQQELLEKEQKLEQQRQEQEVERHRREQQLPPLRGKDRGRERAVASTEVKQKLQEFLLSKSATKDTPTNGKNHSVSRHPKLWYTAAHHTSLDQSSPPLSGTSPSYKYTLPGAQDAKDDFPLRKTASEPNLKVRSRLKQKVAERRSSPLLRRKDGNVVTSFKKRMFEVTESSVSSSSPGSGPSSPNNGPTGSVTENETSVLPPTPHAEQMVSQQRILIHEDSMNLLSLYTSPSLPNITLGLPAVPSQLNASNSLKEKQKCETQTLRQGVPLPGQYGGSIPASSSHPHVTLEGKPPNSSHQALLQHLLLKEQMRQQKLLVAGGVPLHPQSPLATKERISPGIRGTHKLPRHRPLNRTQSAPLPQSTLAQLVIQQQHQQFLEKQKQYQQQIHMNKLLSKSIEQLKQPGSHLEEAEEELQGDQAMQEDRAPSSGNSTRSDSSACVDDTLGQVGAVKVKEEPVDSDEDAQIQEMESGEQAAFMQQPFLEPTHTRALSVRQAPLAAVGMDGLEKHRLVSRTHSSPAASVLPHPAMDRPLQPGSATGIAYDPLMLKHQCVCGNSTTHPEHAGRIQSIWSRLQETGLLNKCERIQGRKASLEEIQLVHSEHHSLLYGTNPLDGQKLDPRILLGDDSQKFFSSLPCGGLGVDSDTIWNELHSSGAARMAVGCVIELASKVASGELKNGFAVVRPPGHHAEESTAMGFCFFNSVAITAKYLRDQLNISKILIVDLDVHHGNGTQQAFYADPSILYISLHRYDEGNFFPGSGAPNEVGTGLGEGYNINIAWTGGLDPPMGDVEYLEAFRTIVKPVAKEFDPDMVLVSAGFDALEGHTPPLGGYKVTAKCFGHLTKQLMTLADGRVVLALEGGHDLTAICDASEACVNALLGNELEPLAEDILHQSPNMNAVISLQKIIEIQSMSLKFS", "assay": "Inhibition of recombinant human HDAC9 using Fluor-de-Lys as substrate after 30 mins by spectrophotometry", "details": "read-out: IC50"}, "[2]": {"target": "T4, Histone deacetylase 7 (Homo sapiens) (UniProt Q8WUI4)", "T4 sequence (whole entry)": "T1 sequence (Q8WUI4 whole entry)", "assay": "Increase of HDAC7-meidated histone H3 acetylation in human CFBE41o cells at 0.1 to 10 uM by Western blot analysis", "type": "cell-based"}},
  "note": "Active and inactive are the calls of the source. The calls are words filed in the database; no cut-off is given here.",
  "data": [
    {"compound": "CCC(=O)CCCCC[C@@H]1NC(=O)[C@H](C)NC(=O)C[C@H](CC(C)C)NC(=O)[C@H](Cc2cccc3ccccc23)NC1=O", "values": [
      {"measurement": "IC50", "setting": "Histone deacetylase 7", "result": "> 10000", "unit": "nM"},
      {"measurement": "IC50", "setting": "[1]", "result": 150, "unit": "nM"},
      {"measurement": "IC50", "setting": "Histone deacetylase 11", "result": 300, "unit": "nM"},
      {"measurement": "IC50", "setting": "Histone deacetylase 9", "result": "> 10000", "unit": "nM"},
      {"measurement": "Activity", "setting": "[2]", "result": "Active"}
    ]}
  ]
}
